What all share (test): NCI tumour cell line growth inhibition, 48 h
For test [1], the system named is M14.
Test [2] relates to RPMI-8226.
Test [3] deals with LXFL 529.
The subject of test [4] is HT-29.
Test [5] relates to M19-MEL.
In test [6] the test system is ACHN.
For test [7], the system named is UO-31.
The test system of test [8] is SK-MEL-5.
For test [9], the system named is LOX IMVI.
The subject of test [10] is NCI-H23.
Test [11] deals with NCI-H522.
Test [12] deals with KM12.
Test [13] deals with SW-620.
Test [14] relates to HOP-62.
Test [15] deals with HOP-92.

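In this assay, cells in 96-well plates receive the compound at five concentrations for 48 hours. Endpoints are linearly interpolated between the surrounding concentrations. GI50 = concentration required for 50% inhibition of growth.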 Calls of active or inactive are those of the source. Cut-off read from the data, not from the text of the source: active = GI50 up to about 1.1 µM and inactive = higher. Where a SMILES comes first, the peptide text is derived from it.

Consider `C/C(=N\NS(=O)(=O)c1ccc(C)cc1)c1cc2ccccc2n1C`, for which the GI50 in test [1] was > 100 µM (inactive); in [2] it was > 100 µM (inactive); in test [3], > 100 µM (inactive); in [4] it was 76 µM (inactive); in test [5], > 100 µM (inactive); in test [6], > 100 µM (inactive). The GI50 in [7], in [8], in [9], in [10], in [11] and in test [12] was > 100 µM (inactive) each time. In addition, the GI50 in test [13] and in test [14] was > 100 µM (inactive) throughout.
Regarding `NC(=S)N1N=C2CCCCCC[C@@H]2[C@H]1c1ccccc1`, the GI50 is 74.5 µM (inactive) in test [1]; 15.1 µM (inactive) in test [2]; 40 µM (inactive) in [3]; 29.2 µM (inactive) in [4]; 38.5 µM (inactive) in [5]; 41.9 µM (inactive) in test [6]. Also, the GI50 in test [7] was 16.7 µM (inactive); in test [8], 22.4 µM (inactive); in test [9] it was 32.8 µM (inactive); in test [10], 40.2 µM (inactive); in [11], 21.2 µM (inactive); in test [12], 35.2 µM (inactive). Besides, the GI50 in [13] was 28.6 µM (inactive); in [14] it was > 100 µM (inactive).
With `Cc1cc(Cl)ccc1NC(=O)C1C(=O)N(c2ccc(Cl)cc2C)C(=O)/C1=N\NC(N)=S` (stereo not drawn), the GI50 in test [1] is 28.2 µM (inactive); in test [15] it was 23.7 µM (inactive); in test [2], 44.8 µM (inactive); in test [3], 28.7 µM (inactive); in test [4], 18.7 µM (inactive); in test [5], 37.4 µM (inactive). Further, the GI50 in test [6] was 36.2 µM (inactive); in test [7], 17 µM (inactive); in test [8], 32.7 µM (inactive); in test [10], 19.8 µM (inactive); in test [11] it was 17.1 µM (inactive); in [12] it was 32.9 µM (inactive). Besides, the GI50 is 29.7 µM (inactive) in test [13] and 21.3 µM (inactive) in test [14].
In the case of `CC1C(c2ccccc2)N(C)C(c2ccccc2)C(C)C1(O)c1ccccc1` (stereo not drawn), the GI50 in test [1] was > 100 µM (inactive); in [15], 83.9 µM (inactive); in test [3] it was > 100 µM (inactive); in test [4], 55.8 µM (inactive); in test [5] it was 47.4 µM (inactive); in [6], > 100 µM (inactive). For the same molecule, the GI50 in [7] is > 100 µM (inactive); in [8], > 100 µM (inactive); in [9], 37.2 µM (inactive); in test [10], > 100 µM (inactive); in [11], > 100 µM (inactive); in test [12], 77.8 µM (inactive). Further, the GI50 in test [13] is 54 µM (inactive); in test [14], > 100 µM (inactive).
Consider `O=C1Nc2c(ccc(Cl)c2I)C1=O`, for which the GI50 was 15.7 µM (inactive) in test [1]; 15.5 µM (inactive) in test [2]; 14 µM (inactive) in test [3]; 28.4 µM (inactive) in [4]; 11.4 µM (inactive) in test [5]; 15.6 µM (inactive) in test [6]. The GI50 was 18.2 µM (inactive) in test [7]; 15.7 µM (inactive) in [8]; 19.1 µM (inactive) in [9]; 14.6 µM (inactive) in test [10]; 15.6 µM (inactive) in [11]; 24.4 µM (inactive) in [12]. Moreover, the GI50 in test [13] is 18.7 µM (inactive); in test [14], 20.8 µM (inactive).
As to `CCC(C)C1NC(=O)C2CCCN2C(=O)CNC(=O)C(C)NC(=O)C(Cc2ccccc2)NC(=O)C(C(C)C)NC1=O` (stereo not drawn) (cyclo(GPIVFA); configuration not given here), the GI50 in [1], in test [15], in [2], in test [3], in test [4] and in [5] was > 100 µM (inactive) throughout. Further, the GI50 in test [6] is > 100 µM (inactive); in test [7], > 100 µM (inactive); in test [8], > 100 µM (inactive); in [9], > 100 µM (inactive); in [10] it was > 100 µM (inactive); in test [12], 61.2 µM (inactive). For the same molecule, the GI50 in test [13] and in test [14] was > 100 µM (inactive) throughout.
As to `COc1cc2c(cc1OCc1ccccc1)CNCC2`, the GI50 is > 100 µM (inactive) in test [1]; 23.6 µM (inactive) in [15]; > 100 µM (inactive) in [3]; > 100 µM (inactive) in test [4]; > 100 µM (inactive) in [5]; > 100 µM (inactive) in test [6]. For the same molecule, the GI50 in test [7] is > 100 µM (inactive); in [8], > 100 µM (inactive); in [9] it was 91.6 µM (inactive); in [10], > 100 µM (inactive); in test [11], > 100 µM (inactive); in [12] it was > 100 µM (inactive). Besides, the GI50 in [13] is 24.3 µM (inactive); in [14], > 100 µM (inactive).
Turning to `O=C(O)C1=Cc2cccc3cccc(c23)C1=O`, the GI50 in [1], in [2], in test [3], in test [4], in test [5] and in [6] was > 100 µM (inactive) each time. In addition, the GI50 in [7] is 81.8 µM (inactive); in [8] it was > 100 µM (inactive); in [9] it was > 100 µM (inactive); in test [10], > 100 µM (inactive); in [11], > 100 µM (inactive); in test [12], > 100 µM (inactive). Further, the GI50 in [13] and in test [14] was > 100 µM (inactive) in each case.
As to `CN(C)CCC(O)(c1ccccc1)C(O)(CCN(C)C)c1ccccc1` (stereo not drawn), the GI50 is 17.4 µM (inactive) in test [1]; > 100 µM (inactive) in [2]; > 100 µM (inactive) in [3]; 94 µM (inactive) in test [4]; > 100 µM (inactive) in [5]; > 100 µM (inactive) in test [6]. In addition, the GI50 in test [7] is > 100 µM (inactive); in test [8], 38.5 µM (inactive); in test [10], > 100 µM (inactive); in test [11], > 100 µM (inactive); in [12], > 100 µM (inactive); in test [13], > 100 µM (inactive). The GI50 in [14] was > 100 µM (inactive).
On to `CCCCCCCCCCCCCCCCOCC(CP(=O)([O-])OCC[n+]1ccccc1)OC` (stereo not drawn), for which the GI50 in test [1] was 5.6 µM (inactive); in test [15] it was 2.28 µM (inactive); in [2], 2.96 µM (inactive); in test [3], 11.4 µM (inactive); in test [4], 4.21 µM (inactive); in test [5], 12.4 µM (inactive). In addition, the GI50 in test [7] is 9.4 µM (inactive); in [8], 14.1 µM (inactive); in test [10] it was 4.05 µM (inactive); in test [11] it was 17.3 µM (inactive); in [12] it was 2.67 µM (inactive); in test [13] it was 14.9 µM (inactive). In addition, the GI50 in test [14] is 11.6 µM (inactive).
As for `COC(=O)[C@@]12OC[C@]34C([C@@H](O)C1O)[C@@]1(C)CC(=O)C(OC(=O)CC(C)C(F)(F)F)=C(C)C1C[C@H]3OC(=O)[C@H](O)[C@H]42` (stereo partly drawn), the GI50 in [1] was 1.99 µM (inactive); in test [15] it was 0.887 µM (active); in [2] it was 0.594 µM (active); in test [3] it was 3.81 µM (inactive); in test [4], 6.92 µM (inactive); in test [5] it was 0.434 µM (active). Besides, the GI50 is 8.22 µM (inactive) in test [6]; 10.6 µM (inactive) in test [7]; 1.63 µM (inactive) in test [8]; 1.38 µM (inactive) in test [10]; 3.46 µM (inactive) in test [11]; 11.2 µM (inactive) in test [12]. In addition, the GI50 in [13] was 1.21 µM (inactive); in test [14], 15 µM (inactive).
As to `COC(=O)c1nc(-c2ccc(Cl)c(Cl)c2)nc2ccccc12`, the GI50 in [1] was > 24.1 µM (inactive); in [2], > 28.9 µM (inactive); in test [3], > 27.1 µM (inactive); in test [4], > 100 µM (inactive); in test [5] it was > 100 µM (inactive); in test [6] it was 50.5 µM (inactive). The GI50 in [7] was 43.4 µM (inactive); in test [8] it was > 35.8 µM (inactive); in test [9], > 100 µM (inactive); in [10], 57.9 µM (inactive); in test [11] it was > 100 µM (inactive); in test [12] it was > 85.7 µM (inactive). Further, the GI50 in test [13] was > 21 µM (inactive); in test [14], 14.3 µM (inactive).
In the case of `c1ccc2c(c1)CCc1cc3cc4c(nc3nc1-2)-c1ccccc1CC4`, the GI50 in test [1] is > 100 µM (inactive); in test [2], > 100 µM (inactive); in test [3], > 100 µM (inactive); in test [4], > 10 µM (inactive); in [5], > 100 µM (inactive); in [6] it was > 100 µM (inactive). For the same molecule, the GI50 in test [7], in [9], in test [10], in [11], in [12] and in test [13] was > 100 µM (inactive) throughout. The GI50 in test [14] is > 100 µM (inactive).
`NCCCOc1ccc([N+](=O)[O-])cc1Cl`: the GI50 in [1] is > 100 µM (inactive); in test [15], 68.9 µM (inactive); in test [2], 51.8 µM (inactive); in [3], 67.3 µM (inactive); in test [4], > 100 µM (inactive); in test [5], > 100 µM (inactive). Further, the GI50 in test [6] is > 100 µM (inactive); in test [7], 81.8 µM (inactive); in test [8], > 100 µM (inactive); in [10], > 100 µM (inactive); in [11], 5.62 µM (inactive); in test [12], > 100 µM (inactive). Besides, the GI50 in test [13] was > 100 µM (inactive); in [14], 71.1 µM (inactive).

(Values after ChEMBL document CHEMBL1201862, “PubChem BioAssay data set” (2004).)
